We go through 4 compounds from patent US10575515B2, “Methods and compositions for preserving tissues and organs” (The General Hospital Corporation, priority 2010, dated 2020).

Data set [1] relates to hepatocytes. In words: Hepatocyte viability after 60 min incubation with isotonic mixtures of sugars and DMSO. The format is cell-based. As for the experimental part:
Significant loading of 3OMG can be achieved within 20 minutes (FIG. 37a). The hepatocyte viability when incubated with 3OMG is statistically equal to other saccharides that are not cryopreservative for mammalian cells (FIG. 37b). By comparison, incubation with a common cryopreservative dimethyl sulfoxide (DMSO) under similar conditions reduces viability to 12%.
Hepatocytes can be loaded with 3OMG within 20 minutes in vitro. FIG. 37A illustrates that the kinetics of 3OMG uptake show significant loading of cells with 3OMG within 20 minutes, and even more rapid release with washing; inventors can currently perfuse the livers in stable condition for more than 6 hrs, which is more than sufficient for loading with 3OMG.

Data set [2] deals with C3A cells (human liver carcinoma line). In words: Cryopreservation of C3A cells with troglitazone, post-thaw viability by trypan blue exclusion. The conditions noted are these: 25 μM troglitazone 30 mins, cryopreservation in liquid nitrogen, vs without. The data set is classed as cell-based. An excerpt:
Inventors performed a molecular docking study to identify ligands of PPAR-γ, a transcription factor that is known to have the ability to modulate metabolic rate (see FIG. 34), where inventors identified Troglitazone as a candidate. Inventors also performed preliminary studies to test the effect of supplementation in preservation efficacy. In these initial studies inventors used C3A cells (human liver carcinoma line) and cryopreservation rather than supercooling, due to availability of data to be used as controls. Inventors observed that Troglitazone increased post-thaw viability ˜2.5 fold. We are currently testing Troglitazone and other compounds with primary rat hepatocytes both in cryopreservation and supercooled storage. Nearly confluent C3A cell flasks were trypsinized in PBS solution; cells were sedimented by centrifugation (10 min at […] at 4 degree C.). The medium was replaced by adding 2 mL of HTS and the cell pallets were re-suspended in the HTS by gentle pipetting. The cell samples in 1 mL aliquots were put in 1.5 mL cryovials. The samples were frozen in a controlled rate freezer using a freeze controlled Cryobath (Cryologic, Victoria, Australia) with a CL-8800 temperature controller (Cryologic). A cooling rate of 1 degree C./min was used. The samples were seeded with ice at −4 degrees C. by using a cotton bulb dipped in liquid nitrogen. […]

Data set [3] has as its system hepatocytes. In words: Cryopreservation of 3OMG-loaded hepatocytes, post-thaw viability by trypan blue exclusion. The data set is classed as cell-based. The conditions noted are these: Hepatocyte; 200 mM 3OMG, storage in liquid nitrogen up to one week; read-out: post-thaw cell viability (percentage of unfrozen control). On the procedure:
Hepatocytes were incubated with 200 mM 3OMG for 60 min and then washed with sugar-free medium for 30 min. Controls were incubated in glucose-free DMEM (no-sugar control), sucrose (non-permeable/non-intracellular control), and D-glucose (permeable but metabolizable control). Following incubation, cells were pelleted by centrifugation for 5 min, supernatant decanted, and resuspended in cold HypoThermosol solution (HTS) with 200 mM 3OMG, 2DG, sucrose, or D-glucose (1×10^6 cell/mL). Cell suspensions were transferred to 1 mL cryogenic vials and cooled at −1° C./min to −6° C., seeded to induce the formation of extracellular ice by application of cold forceps to the exterior of the cryovials, and then cooled at −1° C./min to −80° C., and finally transferred to liquid nitrogen (−196° C.) for storage lasting 1 to 7 days. Following storage, samples were rapidly thawed in a 37° C. water bath for 2 min with gentle agitation. The samples were then diluted 1:10 in D-glucose-free DMEM and incubated for 10 min at 37° C. to wash out the loaded sugar compounds. Samples were then centrifuged, supernatant decanted, and resuspended in culture medium. The viability of the cryopreserved cells was determined immediately after thawing using a trypan blue exclusion assay and expressed as percent of unfrozen control. […]

In data set [4] the test system is hepatocytes. Kind of data set: Long-term hepatic functions of cryopreserved hepatocytes in collagen sandwich culture. The conditions noted are these: albumin, urea, cytochrome P450; 3OMG loaded and frozen. The data set is classed as cell-based. As for the experimental part: Methods: Cells were cultured in a collagen sandwich for […], and media collected daily were analyzed for albumin and urea. All values were normalized by viable cell number (DNA content) and shown as o the means±se (n>9). Urea secretion and resorufin formation were statistically not different (p=0.51 and p=0.3 respectively). Albumin production on days 7-13 were statistically different at p=0.014 (FIG. 39).

The test system of another data set is rat livers. Kind of data set: Subzero nonfreezing storage of whole rat livers at −5° C., histology (H&E). As to conditions: loaded with 3OMG, 24 hours at −5° C., then NELP with red blood cells.
Data set [5] is described as follows: Supercooling in cryovials at subzero temperatures in selected media formulations. The format is physicochemical. On the procedure: We tested a variety of preservation media and additives for achieving SZNF storage overnight in a controlled rate freezer. We were able to reach −10° C. without any freezing in supplemented University of Wisconsin (UW) and Hypothermosol (HTS) by proper tuning of the rate of temperature reduction. […] FIG. 48 depicts the temperature profile for successful subzero cooling at −10° C.

Data set [6] has as its system hepatocytes. Kind of data set: SZNF storage of cells at −4° C. with metabolic supplement, cell viability. The data set is classed as cell-based. The conditions noted are these: tandem SZNF with metabolic suppressant. As for the experimental part:
Inventors are testing a variety of metabolic supplements to enhance viability during preservation. One of the most successful additives inventors tested is magnolol, a biphenolic compound with multiple properties (including tumor suppression and antioxidative capabilities). […] Note that this study was performed early on where stable preservation temperature in plate culture models was −4° C., testing at −10° C. is currently in progress.
The cells were preserved on collagen coated 6 well plates and cultured at 37° C. for one day prior to preservation. Cells were then preserved 48 hours at −4° C.; viability was determined 1 hr after rewarming

On to `C[S+](C)[O-]` [dimethyl sulfoxide (DMSO), dimethyl sulfoxide, reference compound], for which, in the data set on hepatocytes [1] (incubation 60 min, isotonic mixture), the “hepatocyte viability after incubation” value turned out to be 12%.

With `Cc1c(C)c2c(c(C)c1O)CCC(C)(COc1ccc(CC3SC(=O)NC3=O)cc1)O2` (stereo not drawn) [Troglitazone], the “increase of post-thaw viability” value in data set [2] is listed as around 2.5 fold.

As for `CO[C@@H]([C@H](O)[C@H](O)CO)[C@@H](O)C=O` [3OMG, 3-O-methyl-glucose], in the data set with hepatocytes [1] (concentration range studied, 60 min incubation), the “toxicity for hepatocytes” value is recorded as “minimally toxic”. Further, in the data set with hepatocytes [3], the viability at 200000 µM is above 50%. The “long-term hepatic functions vs non-frozen hepatocytes” value with hepatocytes [4] is recorded as “similar”. The “histology after storage and NELP perfusion” value with rat livers is listed as “perfect preservation of microstructure”. Also, in data set [5] (overnight, controlled rate freezer), the “temperature reached without any freezing” value is −15 °C. For the same compound, in data set [5] (−15° C. in HTS), the “fraction of the time the protocol is stable” value was “about 50%”.

For the compound `C=CCc1ccc(O)c(-c2cc(CC=C)ccc2O)c1` [magnolol, 5,5′-Diallyl-2,2′-biphenyldiol], in the data set with hepatocytes [6], the “preservation of viability of cells compared to SZNF in the absence of metabolic suppressant agent” value is recorded as “at least 60%”.

A word on the viability: it is a per cent measure of how many cells are alive, often set against a control.
